Assay results from patent publication US20070049564A1 (Wyeth, priority 2005, published 2007).
In brackets after ≈: the same amount, converted by molar mass. Like-named read-outs stand apart in the source and are kept apart here.

Tests used:
Assay in all cases: MIC, broth microdilution
[1] = tested on: E. coli GC 2233; settings: Escherichia coli
[2] = tested on: E. coli GC 2270; settings: Escherichia coli
[3] = tested on: E. coli GC 2271; settings: Escherichia coli
[4] = tested on: E. coli GC 2272; settings: Escherichia coli
[5] = tested on: E. coli GC 4560; settings: Escherichia coli
[6] = tested on: E. coli GC 6465; settings: Escherichia coli
[7] = tested on: E. coli GC 3226; settings: Escherichia coli
[8] = tested on: E. coli GC 2203; settings: Escherichia coli
[9] = tested on: E. coli GC 1073; settings: Escherichia coli
[10] = tested on: P. aeruginosa GC 2214; settings: Pseudomonas aeruginosa
[11] = tested on: S. aureus GC 1131; settings: Staphylococcus aureus
[12] = tested on: S. aureus GC 6467; settings: Staphylococcus aureus
[13] = tested on: S. aureus GC 1079; settings: Staphylococcus aureus
[14] = tested on: S. aureus GC 6335; settings: Staphylococcus aureus
[15] = tested on: S. aureus GC 6469; settings: Staphylococcus aureus
[16] = tested on: S. epidermidis GC 4935; settings: Staphylococcus epidermidis
[17] = tested on: E. faecalis GC 2265; settings: Enterococcus faecalis
[18] = tested on: E. faecalis GC 2267; settings: Enterococcus faecalis
[19] = tested on: E. faecium GC 2243; settings: Enterococcus faecium
[20] = tested on: c. albicans GC 3066

- MIC ([1]; GC2233, read-out: MINIMAL INHIBITORY CONCENTRATION MIC, pre-incubated in Human Serum): > 64 µg/mL
- MIC ([1]; GC2233, read-out: MINIMAL INHIBITORY CONCENTRATION MIC, pre-incubated in Mouse Serum): 0.5 µg/mL (≈ 0.61 µM)
- MIC ([1]; GC2233, read-out: MINIMAL INHIBITORY CONCENTRATION MIC, pre-incubated in Water): > 64 µg/mL
- MIC ([2]; GC2270, read-out: MINIMAL INHIBITORY CONCENTRATION MIC, pre-incubated in Human Serum): > 64 µg/mL
- MIC ([2]; GC2270, read-out: MINIMAL INHIBITORY CONCENTRATION MIC, pre-incubated in Mouse Serum): 0.25 µg/mL (≈ 0.305 µM)
- MIC ([2]; GC2270, read-out: MINIMAL INHIBITORY CONCENTRATION MIC, pre-incubated in Water): > 64 µg/mL
- MIC ([3]; GC2271, read-out: MINIMAL INHIBITORY CONCENTRATION MIC, pre-incubated in Human Serum): > 64 µg/mL
- MIC ([3]; GC2271, read-out: MINIMAL INHIBITORY CONCENTRATION MIC, pre-incubated in Mouse Serum): 0.25 µg/mL (≈ 0.305 µM)
- MIC ([3]; GC2271, read-out: MINIMAL INHIBITORY CONCENTRATION MIC, pre-incubated in Water): > 64 µg/mL
- MIC ([4]; GC2272, read-out: MINIMAL INHIBITORY CONCENTRATION MIC, pre-incubated in Human Serum): > 64 µg/mL
- MIC ([4]; GC2272, read-out: MINIMAL INHIBITORY CONCENTRATION MIC, pre-incubated in Mouse Serum): 0.5 µg/mL (≈ 0.61 µM)
- MIC ([4]; GC2272, read-out: MINIMAL INHIBITORY CONCENTRATION MIC, pre-incubated in Water): > 64 µg/mL
- MIC ([5]; GC4560, read-out: MINIMAL INHIBITORY CONCENTRATION MIC, pre-incubated in Human Serum): 16 µg/mL (≈ 19.5 µM)
- MIC ([5]; GC4560, read-out: MINIMAL INHIBITORY CONCENTRATION MIC, pre-incubated in Mouse Serum): < 0.06 µg/mL
- MIC ([5]; GC4560, read-out: MINIMAL INHIBITORY CONCENTRATION MIC, pre-incubated in Water): 32 µg/mL (≈ 39 µM)
- MIC ([6]; GC6465, read-out: MINIMAL INHIBITORY CONCENTRATION MIC, pre-incubated in Human Serum): > 64 µg/mL
- MIC ([6]; GC6465, read-out: MINIMAL INHIBITORY CONCENTRATION MIC, pre-incubated in Mouse Serum): 2 µg/mL (≈ 2.44 µM)
- MIC ([6]; GC6465, read-out: MINIMAL INHIBITORY CONCENTRATION MIC, pre-incubated in Water): > 64 µg/mL
- MIC ([7]; GC3226, read-out: MINIMAL INHIBITORY CONCENTRATION MIC, pre-incubated in Human Serum): > 64 µg/mL
- MIC ([7]; GC3226, read-out: MINIMAL INHIBITORY CONCENTRATION MIC, pre-incubated in Mouse Serum): 1 µg/mL (≈ 1.22 µM)
- MIC ([7]; GC3226, read-out: MINIMAL INHIBITORY CONCENTRATION MIC, pre-incubated in Water): > 64 µg/mL
- MIC ([8]; GC2203, read-out: MINIMAL INHIBITORY CONCENTRATION MIC, pre-incubated in Human Serum): > 64 µg/mL
- MIC ([8]; GC2203, read-out: MINIMAL INHIBITORY CONCENTRATION MIC, pre-incubated in Mouse Serum): 0.5 µg/mL (≈ 0.61 µM)
- MIC ([8]; GC2203, read-out: MINIMAL INHIBITORY CONCENTRATION MIC, pre-incubated in Water): > 64 µg/mL
- MIC ([9]; GC1073, read-out: MINIMAL INHIBITORY CONCENTRATION MIC, pre-incubated in Human Serum): > 64 µg/mL
- MIC ([9]; GC1073, read-out: MINIMAL INHIBITORY CONCENTRATION MIC, pre-incubated in Mouse Serum): 0.5 µg/mL (≈ 0.61 µM)
- MIC ([9]; GC1073, read-out: MINIMAL INHIBITORY CONCENTRATION MIC, pre-incubated in Water): > 64 µg/mL
- MIC ([10]; GC2214, read-out: MINIMAL INHIBITORY CONCENTRATION MIC, pre-incubated in Human Serum): > 64 µg/mL
- MIC ([10]; GC2214, read-out: MINIMAL INHIBITORY CONCENTRATION MIC, pre-incubated in Mouse Serum): 16 µg/mL (≈ 19.5 µM)
- MIC ([10]; GC2214, read-out: MINIMAL INHIBITORY CONCENTRATION MIC, pre-incubated in Water): > 64 µg/mL
- MIC ([11]; GC1131, read-out: MINIMAL INHIBITORY CONCENTRATION MIC, pre-incubated in Human Serum): 16 µg/mL (≈ 19.5 µM)
- MIC ([11]; GC1131, read-out: MINIMAL INHIBITORY CONCENTRATION MIC, pre-incubated in Mouse Serum): 1 µg/mL (≈ 1.22 µM)
- MIC ([11]; GC1131, read-out: MINIMAL INHIBITORY CONCENTRATION MIC, pre-incubated in Water): 64 µg/mL (≈ 78.1 µM)
- MIC ([12]; GC6467, read-out: MINIMAL INHIBITORY CONCENTRATION MIC, pre-incubated in Human Serum): 32 µg/mL (≈ 39 µM)
- MIC ([12]; GC6467, read-out: MINIMAL INHIBITORY CONCENTRATION MIC, pre-incubated in Mouse Serum): 0.5 µg/mL (≈ 0.61 µM)
- MIC ([12]; GC6467, read-out: MINIMAL INHIBITORY CONCENTRATION MIC, pre-incubated in Water): > 64 µg/mL
- MIC ([13]; GC1079, read-out: MINIMAL INHIBITORY CONCENTRATION MIC, pre-incubated in Human Serum): 32 µg/mL (≈ 39 µM)
- MIC ([13]; GC1079, read-out: MINIMAL INHIBITORY CONCENTRATION MIC, pre-incubated in Mouse Serum): 1 µg/mL (≈ 1.22 µM)
- MIC ([13]; GC1079, read-out: MINIMAL INHIBITORY CONCENTRATION MIC, pre-incubated in Water): 64 µg/mL (≈ 78.1 µM)
- MIC ([14]; GC6335, read-out: MINIMAL INHIBITORY CONCENTRATION MIC, pre-incubated in Human Serum): 64 µg/mL (≈ 78.1 µM)
- MIC ([14]; GC6335, read-out: MINIMAL INHIBITORY CONCENTRATION MIC, pre-incubated in Mouse Serum): 1 µg/mL (≈ 1.22 µM)
- MIC ([14]; GC6335, read-out: MINIMAL INHIBITORY CONCENTRATION MIC, pre-incubated in Water): 64 µg/mL (≈ 78.1 µM)
- MIC ([15]; GC6469, read-out: MINIMAL INHIBITORY CONCENTRATION MIC, pre-incubated in Human Serum): 32 µg/mL (≈ 39 µM)
- MIC ([15]; GC6469, read-out: MINIMAL INHIBITORY CONCENTRATION MIC, pre-incubated in Mouse Serum): 1 µg/mL (≈ 1.22 µM)
- MIC ([15]; GC6469, read-out: MINIMAL INHIBITORY CONCENTRATION MIC, pre-incubated in Water): > 64 µg/mL
- MIC ([16]; GC4935, read-out: MINIMAL INHIBITORY CONCENTRATION MIC, pre-incubated in Human Serum): 4 µg/mL (≈ 4.88 µM)
- MIC ([16]; GC4935, read-out: MINIMAL INHIBITORY CONCENTRATION MIC, pre-incubated in Mouse Serum): 2 µg/mL (≈ 2.44 µM)
- MIC ([16]; GC4935, read-out: MINIMAL INHIBITORY CONCENTRATION MIC, pre-incubated in Water): 32 µg/mL (≈ 39 µM)
- MIC ([17]; GC2265, read-out: MINIMAL INHIBITORY CONCENTRATION MIC, pre-incubated in Human Serum): 8 µg/mL (≈ 9.76 µM)
- MIC ([17]; GC2265, read-out: MINIMAL INHIBITORY CONCENTRATION MIC, pre-incubated in Mouse Serum): 0.5 µg/mL (≈ 0.61 µM)
- MIC ([17]; GC2265, read-out: MINIMAL INHIBITORY CONCENTRATION MIC, pre-incubated in Water): 32 µg/mL (≈ 39 µM)
- MIC ([18]; GC2267, read-out: MINIMAL INHIBITORY CONCENTRATION MIC, pre-incubated in Human Serum): 4 µg/mL (≈ 4.88 µM)
- MIC ([18]; GC2267, read-out: MINIMAL INHIBITORY CONCENTRATION MIC, pre-incubated in Mouse Serum): 0.5 µg/mL (≈ 0.61 µM)
- MIC ([18]; GC2267, read-out: MINIMAL INHIBITORY CONCENTRATION MIC, pre-incubated in Water): 32 µg/mL (≈ 39 µM)
- MIC ([19]; GC2243, read-out: MINIMAL INHIBITORY CONCENTRATION MIC, pre-incubated in Human Serum): 0.25 µg/mL (≈ 0.305 µM)
- MIC ([19]; GC2243, read-out: MINIMAL INHIBITORY CONCENTRATION MIC, pre-incubated in Mouse Serum): 0.12 µg/mL (≈ 0.146 µM)
- MIC ([19]; GC2243, read-out: MINIMAL INHIBITORY CONCENTRATION MIC, pre-incubated in Water): 0.25 µg/mL (≈ 0.305 µM)
- MIC ([20]; Candida albicans, GC3066, read-out: MINIMAL INHIBITORY CONCENTRATION MIC): > 64 µg/mL
- MINIMAL INHIBITORY CONCENTRATION MIC ([20]; pre-incubated in Human Serum): >64 UG/ML
- MINIMAL INHIBITORY CONCENTRATION MIC ([20]; pre-incubated in Mouse Serum): >64 UG/ML
SMILES: CN(C)c1cc(NC(=O)CN(C(=O)OCOC(=O)c2ccc(C(C)(C)C)cc2)C(C)(C)C)c(O)c2c1C[C@H]1C[C@H]3[C@H](N(C)C)C(O)=C(C(N)=O)C(=O)[C@@]3(O)C(O)=C1C2=O [Example 43, ({[(2-{[(5aR,6aS,7S,10aS)-9-(aminocarbonyl)-4,7-bis(dimethylamino)-1,8,10a,11-tetrahydroxy-10,12-dioxo-5,5a,6,6a,7,10,10a,12-octahydrotetracen-2-yl]amino}-2-oxoethyl)(tert-butyl)amino]carbonyl}oxy)methyl 4-tert-butylbenzoate]
